Consider 13 molecules from patent publication US11787775B2, “Therapeutic compounds and methods of use” (priority 2020, dated 2023).

Holding throughout (assay type): binding
In one assay the target is TEAD3 YAP50-100 (Homo sapiens (Human), UniProt Q99594). The assay is described as follows: TEAD-YAP protein-protein interaction HTRF assay. As to conditions: TEAD3 YAP50-100 HTRF combined EC50, 30 mins incubation with compound. On the procedure: (§1) Purified His-tagged TEAD protein (YAP Binding Domain, amino acids 217-447) is pre-incubated with Europium labelled anti-His antibody tracer (Perkin Elmer Cat #AD0110). Small molecule Inhibitors are then incubated with the TEAD-Eu protein complex for 30 minutes or 4 hours to allow for binding to TEAD protein. Biotinylated YAP peptide for TEAD-YAP assays (AA's 50-100) or biotinylated TAZ peptide for TEAD-TAZ assays (AA's 13-57) that has been pre-incubated with streptavidin −xl665 acceptor (CIS-Bio Cat #610SAXAC) or is added to the compound-TEAD mix. The TEAD-YAP-inhibitor mixture is then incubated for 60 minutes at room temperature. All reactions are carried out in a polystyrene plate. After 60 minutes, the plate is read on a plate reader using TR-FRET mode with wavelengths of 665 nm/615 nm. If YAP or TAZ binds to TEAD as expected, a TR-FRET signal results from the proximity of YAP or TAZ and TEAD after binding. If an inhibitor such as peptide 17 (Selleckchem Cat #S8164) interferes with YAP-TEAD or TAZ-TEAD binding, the disruption of the YAP or TAZ:TEAD interaction results in a decrease in TR-FRET signal. The potency of compounds as YAP:TEAD or TAZ:TEAD protein-protein interaction (PPi) inhibitors is determined by an IC50 or EC50 value generated using a non-linear four parameter curve fit. The extent to which representative examples of the disclosed compounds are able to inhibit interaction between TEAD1, TEAD2, TEAD3 or TEAD4 and YAP truncated from amino acids 50-100 or TAZ truncated from amino acids 13-57 as measured by Homogeneous Time Resolved Fluorescence (HTRF) to generate EC50 and IC50 data.
Sequence of TEAD3 YAP50-100 (Q99594 218-435): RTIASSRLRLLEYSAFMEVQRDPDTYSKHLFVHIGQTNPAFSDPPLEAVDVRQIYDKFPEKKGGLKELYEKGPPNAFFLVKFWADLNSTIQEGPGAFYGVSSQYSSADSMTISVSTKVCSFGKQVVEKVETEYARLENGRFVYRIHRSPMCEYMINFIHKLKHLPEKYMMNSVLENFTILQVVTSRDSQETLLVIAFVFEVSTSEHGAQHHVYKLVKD
(§2) Note that the “Compound Number” in Table 4 corresponds to the “Compound Number” in Table 1. […]
In general terms: In TR-FRET formats the signal depends on donor and acceptor labels being close together.

In a further assay the target is TEAD4 YAP50-100 (Homo sapiens (Human), UniProt Q15561). Briefly: TEAD-YAP protein-protein interaction HTRF assay. To be noted: TEAD4 YAP50-100 HTRF combined EC50, 30 mins incubation with compound. On the procedure:
as §1, §2

In the next assay the target is TEAD1 YAP50-100 (Homo sapiens (Human), UniProt P28347). Briefly: TEAD-YAP protein-protein interaction HTRF assay. To be noted: TEAD1 YAP50-100 HTRF combined EC50, 30 mins incubation with compound. On the procedure: as §1, §2
Sequence of TEAD1 YAP50-100 (P28347 209-426): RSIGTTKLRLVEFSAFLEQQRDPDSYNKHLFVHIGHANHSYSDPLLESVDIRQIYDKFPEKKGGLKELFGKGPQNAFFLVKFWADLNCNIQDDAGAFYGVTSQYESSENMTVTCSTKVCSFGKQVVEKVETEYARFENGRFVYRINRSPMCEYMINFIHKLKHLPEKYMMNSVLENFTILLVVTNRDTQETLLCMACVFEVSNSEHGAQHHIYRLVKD
For the next assay, the target named is TEAD2 YAP50-100 (Homo sapiens (Human), UniProt Q15562). The assay is described as follows: TEAD-YAP protein-protein interaction HTRF assay. To be noted: TEAD2 YAP50-100 HTRF combined EC50, 30 mins incubation with compound. On the procedure:
as §1, §2

The next assay addresses TEAD1 (Homo sapiens (Human), UniProt P28347). Briefly: TEAD lipid pocket TR-FRET (Lipid HTRF) probe competition assay. As to conditions: 30 mins incubation with compound; read-out: Lipid HTRF TEAD1 IC50. The method, then:
(§3) His-tagged TEAD proteins are pre-incubated with TEAD project compounds for 30 minutes or 4 hours at room temperature. Biotinylated lipid pocket probes are then added to the TEAD/Compound mixture and incubated for 60 minutes at room temperature. The lipid pocket probe competes with the test compound for the TEAD lipid pocket until equilibrium is reached. After 60 minutes, Europium labelled anti-His (Perkin Elmer #ADO 110) and XL665 labelled streptavidin (CIS Bio 610SAXAC) are added to the TEAD/test compound/lipid pocket mixture and incubated for 30 minutes or 4 hours. […] If a TEAD lipid pocket binder such as binds and displaces the lipid pocket probe, the disruption of the TEAD:probe interaction results in a decrease in TR-FRET signal. The potency of compounds as TEAD lipid pocket binders is determined by IC50 value generated using a non-linear 4 parameter curve fit.
(§4) Note that the “Compound Number” in Table 2 and Table 3 corresponds to the “Compound Number” in Table 1.

The target of the next assay is TEAD2 (Homo sapiens (Human), UniProt Q15562). The description is as above. To be noted: 30 mins incubation with compound; read-out: Lipid HTRF TEAD2 IC50. The method, then: as §3, §4
Sequence of TEAD2 (Q15562 whole entry): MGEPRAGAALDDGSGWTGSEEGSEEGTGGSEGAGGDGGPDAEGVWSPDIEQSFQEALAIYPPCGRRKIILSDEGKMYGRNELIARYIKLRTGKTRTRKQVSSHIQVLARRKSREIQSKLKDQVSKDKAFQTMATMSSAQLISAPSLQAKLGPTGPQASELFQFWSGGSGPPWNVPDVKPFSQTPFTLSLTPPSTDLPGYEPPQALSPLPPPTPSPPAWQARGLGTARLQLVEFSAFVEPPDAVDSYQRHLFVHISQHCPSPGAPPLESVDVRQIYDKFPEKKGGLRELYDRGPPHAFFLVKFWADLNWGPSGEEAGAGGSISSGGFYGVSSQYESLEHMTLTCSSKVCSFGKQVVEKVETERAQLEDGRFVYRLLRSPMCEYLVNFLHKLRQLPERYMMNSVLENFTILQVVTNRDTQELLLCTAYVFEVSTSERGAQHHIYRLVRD
Another assay has as its target TEAD4 (Homo sapiens (Human), UniProt Q15561). Described as above. As to conditions: 30 mins incubation with compound; read-out: Lipid HTRF TEAD4 IC50. The method, then: as §3, §4
For another assay, the target named is TEAD3 (Homo sapiens (Human), UniProt Q99594). The assay is described as above. As to conditions: 30 mins incubation with compound. The method, then: as §3, §4
Sequence of TEAD3 (Q99594 whole entry, species assumed): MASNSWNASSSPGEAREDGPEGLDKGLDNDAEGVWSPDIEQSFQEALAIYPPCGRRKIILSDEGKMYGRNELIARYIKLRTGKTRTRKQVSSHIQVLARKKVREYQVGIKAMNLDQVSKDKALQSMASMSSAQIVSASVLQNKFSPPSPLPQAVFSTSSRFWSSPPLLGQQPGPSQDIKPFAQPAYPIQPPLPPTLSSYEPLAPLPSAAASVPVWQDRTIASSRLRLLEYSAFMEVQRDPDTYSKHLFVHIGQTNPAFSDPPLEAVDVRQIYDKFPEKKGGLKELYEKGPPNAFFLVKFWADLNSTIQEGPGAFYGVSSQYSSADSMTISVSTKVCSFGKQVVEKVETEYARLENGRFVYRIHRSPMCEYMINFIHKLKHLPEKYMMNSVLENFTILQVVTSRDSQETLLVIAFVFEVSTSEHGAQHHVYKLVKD

The EC50 is the concentration needed to bring the measured effect to its halfway point. Usually IC50 stands for the concentration needed to halve the response being measured.

Sequence of TEAD1 (P28347 whole entry, species assumed): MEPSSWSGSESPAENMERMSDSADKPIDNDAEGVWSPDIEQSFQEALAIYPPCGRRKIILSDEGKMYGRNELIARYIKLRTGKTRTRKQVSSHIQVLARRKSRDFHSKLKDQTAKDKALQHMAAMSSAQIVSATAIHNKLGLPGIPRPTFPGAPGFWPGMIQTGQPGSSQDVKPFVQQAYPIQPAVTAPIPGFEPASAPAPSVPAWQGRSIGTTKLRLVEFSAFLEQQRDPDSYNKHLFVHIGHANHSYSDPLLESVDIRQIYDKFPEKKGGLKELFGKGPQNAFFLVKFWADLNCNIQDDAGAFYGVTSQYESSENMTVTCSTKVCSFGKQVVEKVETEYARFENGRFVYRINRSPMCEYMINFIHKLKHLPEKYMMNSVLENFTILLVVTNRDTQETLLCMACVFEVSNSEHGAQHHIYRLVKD
Sequence of TEAD4 (Q15561 whole entry, species assumed): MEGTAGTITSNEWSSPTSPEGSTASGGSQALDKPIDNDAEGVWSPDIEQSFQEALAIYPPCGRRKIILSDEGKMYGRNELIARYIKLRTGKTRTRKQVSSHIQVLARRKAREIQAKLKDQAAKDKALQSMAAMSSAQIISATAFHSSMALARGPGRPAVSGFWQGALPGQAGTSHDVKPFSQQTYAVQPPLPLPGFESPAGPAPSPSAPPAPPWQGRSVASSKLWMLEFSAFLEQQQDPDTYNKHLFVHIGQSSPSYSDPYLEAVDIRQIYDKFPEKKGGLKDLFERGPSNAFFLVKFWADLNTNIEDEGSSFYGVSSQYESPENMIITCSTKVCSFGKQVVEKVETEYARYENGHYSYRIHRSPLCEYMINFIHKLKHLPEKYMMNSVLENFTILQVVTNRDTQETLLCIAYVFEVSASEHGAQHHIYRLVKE
Sequence of TEAD2 YAP50-100 (Q15562 217-447): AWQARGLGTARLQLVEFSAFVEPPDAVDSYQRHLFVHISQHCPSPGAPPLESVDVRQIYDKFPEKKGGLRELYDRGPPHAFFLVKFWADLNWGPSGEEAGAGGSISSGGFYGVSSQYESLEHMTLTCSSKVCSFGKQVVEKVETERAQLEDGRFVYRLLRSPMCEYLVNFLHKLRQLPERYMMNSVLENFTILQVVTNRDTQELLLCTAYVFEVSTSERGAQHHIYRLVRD
Sequence of TEAD4 YAP50-100 (Q15561 217-434): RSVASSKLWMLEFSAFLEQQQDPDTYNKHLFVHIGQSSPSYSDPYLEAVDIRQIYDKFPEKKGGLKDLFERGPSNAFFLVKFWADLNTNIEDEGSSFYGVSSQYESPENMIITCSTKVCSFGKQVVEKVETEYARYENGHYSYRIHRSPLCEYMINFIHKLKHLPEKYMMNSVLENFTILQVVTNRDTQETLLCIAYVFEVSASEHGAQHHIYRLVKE

For the molecule `C=C(CNc1cc(-c2ccc(C(C)C(F)(F)F)cc2)c2c(c1C#N)CCO2)C(=O)O` (single isomer, unassigned) [Enantiomer C from Example 16, 2-(((4-cyano-7-(4-(1,1,1-trifluoropropan-2-yl)phenyl)-2,3-dihydrobenzofuran-5-yl)amino)methyl)acrylic acid], the concentration for a half-maximal effect (EC50) is 5900 nM at TEAD3 YAP50-100, 10 nM at TEAD4 YAP50-100, 10 nM at TEAD1 YAP50-100 and 20 nM at TEAD2 YAP50-100. Further, the half-maximal inhibitory concentration (IC50) at TEAD1 turned out to be 20 nM; at TEAD2 it was 40 nM; at TEAD4 it was 10 nM; on TEAD3 it was 3000 nM.
Take `C=C(CNc1cc(-c2ccc(C(C)C(F)(F)F)cc2)c2c(c1C#N)CCO2)C(=O)O` (single isomer, unassigned) [Enantiomer D from Example 16, 2-(((4-cyano-7-(4-(1,1,1-trifluoropropan-2-yl)phenyl)-2,3-dihydrobenzofuran-5-yl)amino)methyl)acrylic acid]: the EC50 was greater than 50000 nM at TEAD3 YAP50-100, 100 nM on TEAD4 YAP50-100, 40 nM on TEAD1 YAP50-100 and 70 nM on TEAD2 YAP50-100. For the same molecule, the concentration for half-maximal inhibition (IC50) worked out at 80 nM on TEAD1, 160 nM at TEAD2, 30 nM on TEAD4 and 6100 nM on TEAD3.
Take `C=C(CNc1cc2c(c(-c3ccc(C(C)C)cc3)c1)OCC2)C(=O)O` [Compound 1, 2-[[[7-(4-isopropylphenyl)-2,3-dihydrobenzofuran-5-yl]amino]methyl]prop-2-enoic acid]: the EC50 at TEAD3 YAP50-100 was greater than 50000 nM; at TEAD4 YAP50-100, 50 nM; on TEAD1 YAP50-100, 170 nM; at TEAD2 YAP50-100 it was 100 nM. Moreover, the IC50 at TEAD1 stood at 220 nM; at TEAD2, 220 nM; at TEAD4, 40 nM; on TEAD3, 8400 nM.
In the case of `C=C(CNc1cc2c(c(-c3ccc(C(C)C)cc3)c1)OCC2)C(N)=O` [Compound 2, 2-[[[7-(4-isopropylphenyl)-2,3-dihydrobenzofuran-5-yl]amino]methyl]prop-2-enamide], the EC50 at TEAD3 YAP50-100 turned out to be 18000 nM; on TEAD4 YAP50-100, 90 nM; at TEAD1 YAP50-100, 460 nM; on TEAD2 YAP50-100 it was 70 nM. For the same molecule, the half-maximal inhibitory concentration (IC50) worked out at 590 nM at TEAD1, 80 nM on TEAD2, 30 nM on TEAD4 and 18000 nM on TEAD3.
For `C=C(CNc1cc(-c2ccc(C(C)C)cc2)c2c(c1C#N)CCO2)C(=O)O` [Compound 3, 2-[[[4-cyano-7-(4-isopropylphenyl)-2,3-dihydrobenzofuran-5-yl]amino]methyl]prop-2-enoic acid], the EC50 was 6220 nM on TEAD3 YAP50-100, 30 nM at TEAD4 YAP50-100, 20 nM on TEAD1 YAP50-100 and 30 nM on TEAD2 YAP50-100. For the same molecule, the IC50 on TEAD1 was found to be 20 nM; at TEAD2, 60 nM; at TEAD4, 20 nM; on TEAD3, 2880 nM.
Consider `C=C(CNc1cc(-c2ccc(C(C)C)cc2)c2c(c1C#N)CCO2)C(N)=O` [Compound 4, 2-[[[4-cyano-7-(4-isopropylphenyl)-2,3-dihydrobenzofuran-5-yl]amino]methyl]prop-2-enamide], for which the EC50 on TEAD3 YAP50-100 was 13000 nM; on TEAD4 YAP50-100, 160 nM; at TEAD1 YAP50-100, 230 nM; on TEAD2 YAP50-100 it was 50 nM. Also, the IC50 on TEAD1 was determined as 320 nM; on TEAD2, 100 nM; at TEAD4, 80 nM; on TEAD3 it was 10000 nM.
With `C=C(CNc1cc(-c2ccc(C(C)C)cc2)c2c(c1C#N)CCO2)C(=O)NC` [Compound 5, 2-[[[4-cyano-7-(4-isopropylphenyl)-2,3-dihydrobenzofuran-5-yl]amino]methyl]-N-methyl-prop-2-enamide], the EC50 at TEAD3 YAP50-100, at TEAD4 YAP50-100, at TEAD1 YAP50-100 and at TEAD2 YAP50-100 was greater than 50000 nM throughout. For the same molecule, the half-inhibitory concentration (IC50) at TEAD1 is 1600 nM; at TEAD2 it was 2000 nM; on TEAD4, 1300 nM; on TEAD3, greater than 50000 nM.
Regarding `C=C(CNc1cc(-c2ccc(C(C)C)cc2)c2c(c1C#N)CCO2)C(=O)N(C)C` [Compound 6, 2-[[[4-cyano-7-(4-isopropylphenyl)-2,3-dihydrobenzofuran-5-yl]amino]methyl]-N,N-dimethyl-prop-2-enamide], the EC50 on TEAD3 YAP50-100 was greater than 50000 nM; at TEAD4 YAP50-100, 1000 nM; on TEAD1 YAP50-100 it was 970 nM; at TEAD2 YAP50-100, 2800 nM. For the same molecule, the 50% inhibitory concentration (IC50) on TEAD1 is 1100 nM; on TEAD2, 3500 nM; at TEAD4 it was 500 nM; at TEAD3 it was greater than 50000 nM.
Take `C=C(CN(C)c1cc(-c2ccc(C(C)C)cc2)c2c(c1C#N)CCO2)C(=O)O` [Compound 7, 2-[[[4-cyano-7-(4-isopropylphenyl)-2,3-dihydrobenzofuran-5-yl]-methyl-amino]methyl]prop-2-enoic acid]: the concentration for a half-maximal effect (EC50) was greater than 50000 nM on TEAD3 YAP50-100, 430 nM on TEAD4 YAP50-100, 510 nM at TEAD1 YAP50-100 and 180 nM on TEAD2 YAP50-100. In addition, the IC50 on TEAD1 is 540 nM; at TEAD2, 230 nM; at TEAD4 it was 160 nM; on TEAD3, 14000 nM.
`C=C(CNc1cc(-c2ccc(C(C)C)cc2)c2c(c1C#N)CCO2)C(=O)OC` [Compound 8, methyl 2-[[[4-cyano-7-(4-isopropylphenyl)-2,3-dihydrobenzofuran-5-yl]amino]methyl]prop-2-enoate]: the EC50 on TEAD3 YAP50-100, on TEAD4 YAP50-100, at TEAD1 YAP50-100 and at TEAD2 YAP50-100 was greater than 50000 nM throughout. Also, the half-maximal inhibitory concentration (IC50) turned out to be 70 nM at TEAD1, 40 nM at TEAD2, 20 nM at TEAD4 and 240 nM at TEAD3.
Regarding `C=C(CNc1cc(-c2ccc(C(C)C)cc2)c2c(c1C#N)CCO2)C(=O)NO` [Compound 9, 2-[[[4-cyano-7-(4-isopropylphenyl)-2,3-dihydrobenzofuran-5-yl]amino]methyl]prop-2-enehydroxamic acid], the half-maximal effective concentration (EC50) came out at 2200 nM at TEAD3 YAP50-100, 280 nM on TEAD4 YAP50-100, 190 nM on TEAD1 YAP50-100 and 50 nM on TEAD2 YAP50-100. For the same molecule, the IC50 at TEAD1 amounted to 280 nM; at TEAD2, 110 nM; at TEAD4, 120 nM; on TEAD3, 2400 nM.
As for `C=C(CNc1cc(-c2ccc(C(C)C)cc2)c2c(c1C#N)CCO2)B(O)O` [Compound 10, 1-[[[4-cyano-7-(4-isopropylphenyl)-2,3-dihydrobenzofuran-5-yl]amino]methyl]vinylboronic acid], the concentration giving a half-maximal response (EC50) on TEAD3 YAP50-100 was greater than 50000 nM; on TEAD4 YAP50-100, 2100 nM; on TEAD1 YAP50-100, 5700 nM; at TEAD2 YAP50-100 it was 2100 nM. Besides, the IC50 on TEAD1 is 6300 nM; at TEAD2, 2700 nM; at TEAD4, 1300 nM; on TEAD3, greater than 50000 nM.
Turning to `C=C(CNc1cc(-c2ccc(C(C)C)cc2)c2c(c1C#N)CCO2)C(C)=O` [Compound 11, 7-(4-isopropylphenyl)-5-[(2-methylene-3-oxo-butyl)amino]-2,3-dihydrobenzofuran-4-carbonitrile], the EC50 came to 200 nM at TEAD3 YAP50-100, 80 nM at TEAD4 YAP50-100, 320 nM at TEAD1 YAP50-100 and 130 nM on TEAD2 YAP50-100. Besides, the 50% inhibitory concentration (IC50) at TEAD1 was determined as 180 nM; at TEAD2 it was 80 nM; on TEAD4, 40 nM; at TEAD3 it was 130 nM.
